Drawing on patent US10787444B2, “Compounds for the modulation of myc activity” (Syros Pharmaceuticals, Inc., priority 2015, dated 2020), this text covers IC50 for 29 compounds.

Bounds are passed on as bounds.

One test concerns the target T1, c-Myc/Max/Ebox DNA (Homo sapiens, UniProt P01106).
T1 construct: his6 (cleaved yes)
The test can be described thus: c-Myc/Max/Ebox DNA AlphaScreen Assay. The class given is binding. As to conditions: Table 2, compounds of FIG. 1; calculated IC50 class. Put shortly: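 Compounds were preincubated with free c-Myc (20 nM), biotinylated single-Ebox DNA (10 nM) and Ni acceptor beads before his6-Max (5 nM) and streptavidin donor beads were added. Buffer was 50 mM HEPES pH 8.0, 150 mM NaCl, BSA, Tween20, glycogen and DTT, with DMSO ≤2%. After 2 h incubation, AlphaScreen signal was read at 680 nm excitation and 520–620 nm emission.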

Test [1] deals with human small lung cancer cell line H2171. Briefly: Cell Viability Assay (ATPlite). It is filed as cell-based. The conditions noted are these: Homo sapiens, NCI-H2171, 72 h, Table 2, compounds of FIG. 1; H2171 cells, three days, ATPlite; calculated IC50 class; read-out: H2171 Activity. In short, it runs like this: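 H2171 cells were plated at 20,000 cells/mL and dosed immediately by pin transfer with a 10-point dose series in DMSO. After three days at 37° C, ATPlite luminescence served as the viability readout.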

T1 sequence (P01106 whole entry): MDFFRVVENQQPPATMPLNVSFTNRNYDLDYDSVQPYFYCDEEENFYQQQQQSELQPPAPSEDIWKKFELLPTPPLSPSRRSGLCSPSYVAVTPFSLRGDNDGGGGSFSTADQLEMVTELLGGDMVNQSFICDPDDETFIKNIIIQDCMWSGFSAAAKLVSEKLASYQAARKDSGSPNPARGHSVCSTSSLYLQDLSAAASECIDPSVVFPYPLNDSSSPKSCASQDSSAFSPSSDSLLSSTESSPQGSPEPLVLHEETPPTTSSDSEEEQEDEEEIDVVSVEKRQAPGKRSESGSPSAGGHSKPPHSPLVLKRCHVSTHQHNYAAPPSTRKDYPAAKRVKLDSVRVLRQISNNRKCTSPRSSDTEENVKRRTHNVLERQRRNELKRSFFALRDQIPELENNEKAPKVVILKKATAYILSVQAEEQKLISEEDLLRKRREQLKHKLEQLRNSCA

Regarding `COCCNCCC(=O)Nc1sc2c(c1-c1nc3cc(-c4cccc(C(=O)N(C)C)c4)ccc3s1)CCNC2` [compound 394], the IC50 (at c-Myc/Max/Ebox DNA; in test [1]) was less than 300 nM throughout.

In the case of `COCCNCCC(=O)Nc1sc2c(c1-c1nc3cc(-c4cnc(OC)nc4)ccc3s1)CCNC2` [compound 404], the IC50 (on c-Myc/Max/Ebox DNA; in test [1]) was less than 300 nM each time.

Regarding `COCCNCCC(=O)Nc1sc2c(c1-c1nc3cc(-c4ccc(C#N)nc4)ccc3s1)CCNC2` [compound 405], the IC50 (on c-Myc/Max/Ebox DNA; in test [1]) was less than 300 nM in each case.

As for `COCCNCCC(=O)Nc1sc2c(c1-c1nc3cc(-c4ccn[nH]4)ccc3s1)CCNC2` [compound 406], the IC50 (at c-Myc/Max/Ebox DNA; in test [1]) was less than 300 nM each time.

On to `COCCNCCC(=O)Nc1sc2c(c1-c1nc3cc(-c4ccc(C(=O)OC)nc4)ccc3s1)CCNC2` [compound 409], for which the IC50 (at c-Myc/Max/Ebox DNA; in test [1]) was less than 300 nM throughout.

For `COCCNCCC(=O)Nc1sc2c(c1-c1nc3cc(-c4ccnc(N)c4)ccc3s1)CCNC2` [compound 433], the IC50 (on c-Myc/Max/Ebox DNA; in test [1]) was less than 300 nM each time.

As to `COCCNCCC(=O)Nc1sc2c(c1-c1nc3cc(-c4cncc(N)c4)ccc3s1)CCNC2` [compound 443], the IC50 (on c-Myc/Max/Ebox DNA; in test [1]) was less than 300 nM throughout.

Turning to `CCOC(=O)Cn1cc(-c2ccc3sc(-c4c(NC(=O)CCNCCOC)sc5c4CCNC5)nc3c2)cn1` [compound 445], the IC50 (at c-Myc/Max/Ebox DNA; in test [1]) was less than 300 nM in each case.

With `COCCNCCC(=O)Nc1sc2c(c1-c1nc3ccc(-c4ccnc(F)c4)cc3s1)CCNC2` [compound 456], the IC50 (on c-Myc/Max/Ebox DNA; in test [1]) was less than 300 nM in each case.

For the compound `COCCNCCC(=O)Nc1sc2c(c1-c1nc3cc(-c4ccnc(F)c4)ccc3s1)CCNC2` [compound 458], the IC50 (at c-Myc/Max/Ebox DNA; in test [1]) was less than 300 nM throughout.

In the case of `COCCNCCC(=O)Nc1sc2c(c1-c1nc3ccc(C4=CCNCC4)cc3s1)CCNC2` [compound 459], the IC50 (on c-Myc/Max/Ebox DNA; in test [1]) was less than 300 nM in each case.

As to `COCCNCCC(=O)Nc1sc2c(c1-c1nc3cc(-c4cnn(C(C)C)c4)ccc3s1)CCNC2` [compound 465], the IC50 (at c-Myc/Max/Ebox DNA; in test [1]) was less than 300 nM each time.

For `COCCNCCC(=O)Nc1sc2c(c1-c1nc3ccc(-c4cnoc4)cc3s1)CCNC2` [compound 469], the IC50 (on c-Myc/Max/Ebox DNA; in test [1]) was less than 300 nM each time.

Take `COCCNCCC(=O)Nc1sc2c(c1-c1nc3cc(-c4cnoc4)ccc3s1)CCNC2` [compound 481]: the IC50 (on c-Myc/Max/Ebox DNA; in test [1]) was less than 300 nM each time.

Regarding `COCCNCCC(=O)Nc1sc2c(c1-c1nc3ccc(-c4cccc(C(=O)NCCN(C)C)c4)cc3s1)CCNC2` [compound 493], the IC50 (on c-Myc/Max/Ebox DNA; in test [1]) was less than 300 nM in each case.

On to `COCCNCCC(=O)Nc1sc2c(c1-c1nc3cc(C4=CCNCC4)ccc3s1)CCNC2` [compound 497], for which the IC50 (at c-Myc/Max/Ebox DNA; in test [1]) was less than 300 nM each time.

For `COCCNCCC(=O)Nc1sc2c(c1-c1nc3ccc(-c4ccc(N5CCNCC5)nc4)cc3s1)CCNC2` [compound 504], the IC50 (at c-Myc/Max/Ebox DNA; in test [1]) was less than 300 nM each time.

On to `CC(C)NCCC(=O)Nc1sc2c(c1-c1nc3c(-c4cnn(C)c4)cccc3s1)CCNC2` [compound 515], for which the IC50 (on c-Myc/Max/Ebox DNA; in test [1]) was less than 300 nM each time.

Take `CC(C)NCCC(=O)Nc1sc2c(c1-c1nc3c(Br)cccc3s1)CCNC2` [compound 516]: the IC50 (at c-Myc/Max/Ebox DNA; in test [1]) was less than 300 nM in each case.

Take `CC(C)NCCC(=O)Nc1sc2c(c1-c1nc3c(-c4cccnc4)cccc3s1)CCNC2` [compound 534]: the IC50 (on c-Myc/Max/Ebox DNA; in test [1]) was less than 300 nM each time.

For `CC(C)NCCC(=O)Nc1sc2c(c1-c1nc3c(-c4ccncc4)cccc3s1)CCNC2` [compound 535], the IC50 (on c-Myc/Max/Ebox DNA; in test [1]) was less than 300 nM each time.

Turning to `CC(C)NCCC(=O)Nc1sc2c(c1-c1nc3c(S(C)(=O)=O)cccc3s1)CCNC2` [compound 553], the IC50 (on c-Myc/Max/Ebox DNA; in test [1]) was less than 300 nM each time.

As to `COCCNCCC(=O)Nc1sc2c(c1-c1nc3c(Br)cccc3s1)CCNC2` [compound 559], the IC50 (at c-Myc/Max/Ebox DNA; in test [1]) was less than 300 nM each time.

In the case of `COCCNCCC(=O)Nc1sc2c(c1-c1nc3c(C#N)cccc3s1)CCNC2` [compound 568], the IC50 (at c-Myc/Max/Ebox DNA; in test [1]) was less than 300 nM throughout.

With `CC(C)NCCC(=O)Nc1sc2c(c1-c1nc3cc(NS(C)(=O)=O)ccc3s1)CCNC2` [compound 581], the IC50 (on c-Myc/Max/Ebox DNA; in test [1]) was less than 300 nM in each case.

On to `COCCNCCC(=O)Nc1sc2c(c1-c1nc3c(CO)cccc3s1)CCNC2` [compound 598], for which the IC50 (on c-Myc/Max/Ebox DNA; in test [1]) was less than 300 nM each time.

On to `CCc1cccc2nc(-c3c(NC(=O)CCNCCOC)sc4c3CCNC4)sc12` [compound 599], for which the IC50 (on c-Myc/Max/Ebox DNA; in test [1]) was less than 300 nM each time.

Consider `COCCNCCC(=O)Nc1sc2c(c1-c1nc3c(NC4COC4)cccc3s1)CCNC2` [compound 600], for which the IC50 (at c-Myc/Max/Ebox DNA; in test [1]) was less than 300 nM throughout.

As for `COCCNCCC(=O)Nc1sc2c(c1-c1nc3c(C(F)(F)F)cccc3s1)CCNC2` [compound 611], the IC50 (at c-Myc/Max/Ebox DNA; in test [1]) was less than 300 nM throughout.
